Measurements reported in ChEMBL document CHEMBL1147953, “9-Nitroanthracene derivative as a precursor of anthraquinone for photodynamic therapy” (Bioorg Med Chem, 2007).
Active and inactive are the calls of the source. The rule behind the calls is not given here.

What was measured:
Escherichia coli [1] = experiment: Induction of strand cleavage in pBR322 DNA after irradiation with 5 J/cm^2 assessed as conversion of supercoiled DNA to […] circular form at 200 uM
Escherichia coli [2] = experiment: Induction of strand cleavage in pBR322 DNA in absence of irradiation assessed as conversion of supercoiled DNA to […] circular form at 200 uM

Activity (Escherichia coli [1]) | Activity (Escherichia coli [2]) | SMILES
Active | inactive | CN(C)CCCC(=O)Nc1ccc2cc3ccccc3c([N+](=O)[O-])c2c1
Active | inactive | CN(C)CCCC(=O)Nc1ccc2cc3ccccc3cc2c1[N+](=O)[O-]
